Test results reported in patent publication US8466188B2, “Use of spiro-oxindole compounds as therapeutic agents” (Xenon Pharmaceuticals Inc., priority 2006, dated 2013).

| melting point | SMILES |
| --- | --- |
| 158 to 160 °C | Cl.O=C1N(CCC2CCN(C3CCC3)CC2)c2ccccc2C12COc1cc3c(cc12)OCO3 (stereo not drawn) |
| 168 to 170 °C | Cl.O=C1N(CCC2CCN(C3CCOCC3)CC2)c2ccccc2C12COc1cc3c(cc12)OCO3 (stereo not drawn) |
| 157 to 160 °C | CC(C)N1CCC(CN2C(=O)C3(COc4cc5c(cc43)OCO5)c3cccc(F)c32)CC1.Cl (stereo not drawn) |
| 124 to 126 °C | CC1(C)COc2cc3c(cc21)C1(CO3)C(=O)N(Cc2cccnc2)c2ccccc21.Cl (stereo not drawn) |
| 145 to 147 °C | CC1(C)COc2cc3c(cc21)C1(CO3)C(=O)N(Cc2ccccn2)c2ccccc21.Cl (stereo not drawn) |
| 146 to 150 °C | CN(C)c1ccc(CN2C(=O)C3(COc4cc5c(cc43)OCO5)c3ccccc32)cn1.Cl (stereo not drawn) |
| 185 to 200 °C | Cl.O=C1N(Cc2ccc(N3CCOCC3)nc2)c2ccccc2C12COc1cc3c(cc12)OCO3 (stereo not drawn) |
| 160 to 165 °C | Cl.O=C1N(Cc2ccc(N3CCCC3)nc2)c2ccccc2C12COc1cc3c(cc12)OCO3 (stereo not drawn) |
| 208 to 210 °C | Cl.O=C1N(Cc2ccccn2)c2ccccc2C12COc1cc3c(cc12)CCO3 (stereo not drawn) |
| 150 to 152 °C | Cl.O=C1N(Cc2ccccn2)c2ccccc2C12COc1cc(OC(F)(F)F)ccc12 (stereo not drawn) |
| 151 to 153 °C | Cl.O=C1N(Cc2cccnc2)c2ccccc2C12COc1cc(OC(F)(F)F)ccc12 (stereo not drawn) |
| > 240 °C | Cl.O=C1N(CCN2CCCCC2)c2ccccc2C12COc1cc3c(cc12)OCO3 (stereo not drawn) |
| 153 to 155 °C | Cl.O=C1N(CCC2CCN(C3CCCC3)CC2)c2ccccc2C12COc1cc3c(cc12)OCO3 (stereo not drawn) |
| 155 to 156 °C | CC(C)N1CCC(CCN2C(=O)C3(COc4cc5c(cc43)OCO5)c3ccccc32)CC1.Cl (stereo not drawn) |
| 98 to 100 °C | Cl.O=C1N(Cc2ccc(C(F)(F)F)o2)c2ccccc2C12COc1ccc(-c3cccnc3)cc12 (stereo not drawn) |
| 166 to 167 °C | COC(=O)c1ccccc1CN1C(=O)C2(COc3cc4c(cc32)OCO4)c2ccccc21 (stereo not drawn) [Example 1.4, methyl 2-[(2′-oxospiro[furo[2,3-f][1,3]benzodioxole-7,3′-indol]-1′(2′H)-yl)methyl]benzoate] |
| 252 °C (dec.) | O=C1Nc2ccccc2C12COc1cc3c(cc12)OCO3 (stereo not drawn) [Example 1.8, spiro[furo[2,3-f][1,3]benzodioxole-7,3′-indol]-2′(1′H)-one] |
| 48 to 50 °C | CCCCCN1C(=O)C2(COc3cc(F)c(F)cc32)c2ccccc21 (stereo not drawn) [Example 1.12, 5,6-difluoro-1′-pentylspiro[1-benzofuran-3,3′-indol]-2′(1′H)-one] |
| 74 to 76 °C | CCCCCN1C(=O)C2(COc3cc(F)c(Cl)cc32)c2ccccc21 (stereo not drawn) [Example 1.15, 5-chloro-6-fluoro-1′-pentylspiro[1-benzofuran-3,3′-indol]-2′(1′H)-one] |
| 190 to 192 °C | CC1(C)COc2cc3c(cc21)C1(CO3)C(=O)N(C(c2ccccc2)c2ccccc2)c2ccccc21 (stereo not drawn) [Example 1.20, 1′-(diphenylmethyl)-5,5-dimethyl-5,6-dihydrospiro[benzo[1,2-b:5,4-b′]difuran-3,3′-indol]-2′(1′H)-one] |
| 95 to 100 °C | CC1(C)COc2cc3c(cc21)C1(CO3)C(=O)Nc2ccccc21 (stereo not drawn) [Example 1.21, 5,5-dimethyl-5,6-dihydrospiro[benzo[1,2-b:5,4-b′]difuran-3,3′-indol]-2′(1′H)-one] |
| 106 to 108 °C | CCCCCN1C(=O)C2(COc3cc4c(cc32)OCO4)c2c(Cl)ccc(Cl)c21 (stereo not drawn) [Example 1.22, 4′,7′-dichloro-1′-pentylspiro[furo[2,3-f][1,3]benzodioxole-7,3′-indol]-2′(1′H)-one] |
| > 200 °C | O=C1N(Cc2ccccn2)c2cccc(Br)c2C12COc1cc3c(cc12)CCO3 (stereo not drawn) [Example 1.25, 4′-bromo-1′-(pyridin-2-ylmethyl)-5,6-dihydrospiro[benzo[1,2-b:5,4-b′]difuran-3,3′-indol]-2′(1′H)-one] |

| melting point | SMILES |
| --- | --- |
| 139 to 141 °C | O=C1N(Cc2ccc(C(F)(F)F)o2)c2ccc(F)cc2C12COc1cc3c(cc12)OCO3 (stereo not drawn) [Example 1.26, 5′-fluoro-1′-{[5-(trifluoromethyl)-2-furyl]methyl}spiro[furo[2,3-f][1,3]benzodioxole-7,3′-indol]-2′(1′H)-one] |
| 269 to 271 °C | Cc1ccc2c(c1)C1(COc3cc4c(cc31)OCO4)C(=O)N2 (stereo not drawn) [Example 1.28, 5′-methylspiro[furo[2,3-f][1,3]benzodioxole-7,3′-indol]-2′(1′H)-one] |
| 105 to 107 °C | CCCCCN1C(=O)C2(COc3cc4nc(C)sc4cc32)c2ccccc21 (stereo not drawn) [Example 1.32, 2-methyl-1′-pentylspiro[furo[2,3-f][1,3]benzothiazole-7,3′-indol]-2′(1′H)-one] |
| 143 to 145 °C | O=C1N(Cc2ccc(C(F)(F)F)o2)c2ccccc2C12COc1ccc(Br)cc12 (stereo not drawn) [Example 1.33, 5-bromo-1′-{[5-(trifluoromethyl)-2-furyl]methyl}spiro[1-benzofuran-3,3′-indol]-2′(1′H)-one] |
| 225 to 228 °C | O=C1Nc2ccccc2C12COc1ccc(Br)cc12 (stereo not drawn) [Example 1.34, 5-bromospiro[1-benzofuran-3,3′-indol]-2′(1′H)-one] |
| 180 to 182 °C | O=C1Nc2ccccc2C12COc1cc(OC(F)(F)F)ccc12 (stereo not drawn) [Example 1.36, 6-(trifluoromethoxy)spiro[1-benzofuran-3,3′-indol]-2′(1′H)one] |
| 133 to 134 °C | CCOC(=O)CN1C(=O)C2(COc3cc(F)c(F)cc32)c2c(Br)cccc21 (stereo not drawn) [Example 1.47, ethyl (4′-bromo-5,6-difluoro-2′-oxospiro[1-benzofuran-3,3′-indol]-1′(2′H)-yl)acetate] |
| 208 to 210 °C | O=C1Nc2ccccc2C12COc1cc3c(cc12)CCO3 (stereo not drawn) [Example 1.51, 5,6-dihydrospiro[benzo[1,2-b:5,4-b′]difuran-3,3′-indol]-2′(1′H)-one] |
| 149 to 153 °C | COc1cccc2c1C1(COc3cc4c(cc31)OCO4)C(=O)N2Cc1ccc(C(F)(F)F)o1 (stereo not drawn) [Example 1.53, 4′-methoxy-1′{[5-(trifluoromethyl)-2-furyl]methyl}spiro[furo[2,3-f][1,3]benzodioxole-7,3′-indol]-2′(1′H)-one] |
| 228 to 229 °C | O=C(O)CN1C(=O)C2(COc3cc4c(cc32)CCO4)c2c(Cl)cccc21 (stereo not drawn) [Example 2.2, (4′-chloro-2′-oxo-5,6-dihydrospiro[benzo[1,2-b:5,4-b′]difuran-3,3′-indol]-1′(2′H)-yl)acetic acid] |
| 243 to 245 °C | O=C(CN1C(=O)C2(COc3cc4c(cc32)CCO4)c2c(Cl)cccc21)Nc1ccccc1F (stereo not drawn) [Example 3.6, 2-(4′-chloro-2′-oxo-5,6-dihydrospiro[benzo[1,2-b:5,4-b′]difuran-3,3′-indol]-1′(2′H)-yl)-N-(2-fluorophenyl)acetamide] |
| 229 to 230 °C | O=C(CN1C(=O)C2(COc3cc4c(cc32)CCO4)c2cc(Cl)ccc21)Nc1ccccc1F (stereo not drawn) [Example 3.7, 2-(5′-chloro-2′-oxo-5,6-dihydrospiro[benzo[1,2-b:5,4-b′]difuran-3,3′-indol]-1′(2′H)-yl)-N-(2-fluorophenyl)acetamide] |
| 70 to 75 °C | O=C(CN1C(=O)C2(COc3cc(Cl)ccc32)c2ccccc21)Nc1ccccc1F (stereo not drawn) [Example 3.8, 2-(6-chloro-2′-oxospiro[1-benzofuran-3,3′-indol]-1′(2′H)-yl)-N-(2-fluorophenyl)acetamide] |
| 97 to 100 °C | O=C(CN1C(=O)C2(COc3cc(F)c(F)cc32)c2ccccc21)Nc1ccccc1F (stereo not drawn) [Example 3.9, 2-(5,6-difluoro-2′-oxospiro[1-benzofuran-3,3′-indol]-1′(2′H)-yl)-N-(2-fluorophenyl)acetamide] |
| 100 to 103 °C | O=C(CN1C(=O)C2(COc3ccc(Br)cc32)c2ccccc21)Nc1ccccc1F (stereo not drawn) [Example 3.10, 2-(5-bromo-2′-oxospiro[1-benzofuran-3,3′-indol]-1′(2′H)-yl)-N-(2-fluorophenyl)acetamide] |
| 245 to 246 °C | O=C(CN1C(=O)C2(COc3cc4c(cc32)CCO4)c2c(Br)cccc21)Nc1ccccc1F (stereo not drawn) [Example 3.12, 2-(4′-bromo-2′-oxo-5,6-dihydrospiro[benzo[1,2-b:5,4-b′]difuran-3,3′-indol]-1′(2′H)-yl)-N-(2-fluorophenyl)acetamide] |
| 210 to 212 °C | O=C(CN1C(=O)C2(COc3cc4c(cc32)CCO4)c2ccccc21)Nc1ccccc1F (stereo not drawn) [Example 3.13, N-(2-fluorophenyl)-2-(2′-oxo-5,6-dihydrospiro[benzo[1,2-b:5,4-b′]difuran-3,3′-indol]-1′(2′H)-yl)acetamide] |
| 250 to 255 °C | Cc1ccc(F)c2c1N(CC(=O)Nc1ccccc1F)C(=O)C21COc2cc3c(cc21)CCO3 (stereo not drawn) [Example 3.14, 2-(4′-fluoro-7′-methyl-2′-oxo-5,6-dihydrospiro[benzo[1,2-b:5,4-b′]difuran-3,3′-indol]-1′(2′H)-yl)-N-(2-fluorophenyl)acetamide] |
| > 250 °C | CC1(C)Cc2cc3c(cc2O1)OCC31C(=O)N(CC(=O)Nc2ccccc2F)c2cccc(-c3cncnc3)c21 (stereo not drawn) [Example 4.3, 2-(6,6-dimethyl-2′-oxo-4′-pyrimidin-5-yl-5,6-dihydrospiro[benzo[1,2-b:5,4-b′]difuran-3,3′-indol]-1′(2′H)-yl)-N-(2-fluorophenyl)acetamide] |
| 270 to 272 °C | O=C1Nc2cccc(-c3ccoc3)c2C12COc1cc3c(cc12)OCO3 (stereo not drawn) [Example 4.4, 4′-(3-furyl)spiro[furo[2,3-f][1,3]benzodioxole-7,3′-indol]-2′(1′H)-one] |
| > 230 °C | O=C1Nc2cccc(-c3cccc4c3oc3ccccc34)c2C12COc1cc3c(cc12)OCO3 (stereo not drawn) [Example 4.5, 4′-dibenzo[b,d]furan-4-ylspiro[furo[2,3-f][1,3]benzodioxole-7,3′-indol]-2′(1′H)-one] |
| 174 to 176 °C | COc1ccc(-c2cccc3c2C2(COc4cc5c(cc42)OCO5)C(=O)N3Cc2ccc(C(F)(F)F)o2)cn1 (stereo not drawn) [Example 4.6, 4′-(6-methoxypyridin-3-yl)-1′-{[5-(trifluoromethyl)-2-furyl]methyl}spiro[furo[2,3-f][1,3]benzodioxole-7,3′-indol]-2′(1′H)-one] |
